Test results as given in US20080153705A1, “METHOD FOR INHIBITING DIFFERENTITATION AND FORMATION OF CONIFEROPHYTA MALE FLOWERS BY TREATMENT WITH PROHEXADIONE COMPOUNDS” (Syngenta Crop Protection, Inc., priority 2002, published 2008).

Tests used:
[1] = tested on: 43-year old Cryptomeria japonica trees; experiment: Aerial (helicopter curtain) application of the agent to a forest of 43-year old Cryptomeria japonica trees (Example 2); format: in vivo; conditions: 43-year old trees; for Number of male flower clusters: Table 6 composition (polyoxyethylene castor oil, tetrahydrofurfuryl alcohol, water), 1.8 liters per 10 a by helicopter, control group 2985.8 ± 789.1; for Shoot Elongation: Table 6 composition, control group 80.8 ± 9.4
Description: A Cryptomeria japonica forest having 43-year old Cryptomeria japonica trees (height: 16 m, diameter at breast height: 35 cm) was treated in Nirayama experimental plantation of the department of agriculture of Tottori University on Jun. 25, 2001.
The concentration of the agent for inhibiting the formation of Cryptomeria japonica pollen thus sprayed was 50 or 500 ppm.
1.8 liters of each of the above described two compositions was applied to the forest having an area of 10 a by the curtain application method with a helicopter. The aerial application was conducted twice, using 0.9 liter of the composition each time. In a control group, only water free from the active ingredients was used for the aerial application.

[2] = tested on: 8-year old young Cryptomeria japonica trees; experiment: Foliar spray of prohexadione compound on branches of 8-year old young Cryptomeria japonica trees (Example 1); format: in vivo; conditions: 8-year old trees; for Branches Elongation: control group 24.6 ± 6.4; for Number of male flower clusters: 100 ml foliar spray, control group 136.9 ± 21.6
Description: Two 8-year old young Cryptomeria japonica trees (height: 8 m, diameter at breast height: 6 cm) which were in a nursery of an experimental plantation of the department of agriculture of Tottori University and which had formed male flowers every year were used. Three branches were selected at male flower-forming positions of each tree. These branches which were supposed to form the male flowers were treated with the prohexadione compound ([…]) on Jun. 5, 2001 (about one month before the beginning of July when Cryptomeria japonica flower buds were supposed to differentiate and Cryptomeria japonica flower buds were supposed to be formed). In this test, the prohexadione compound was diluted to a concentration shown in Table 3 given below with 60% (v/v) aqueous acetone solution.
The treatment method was as follows: 100 ml of the diluted solution obtained as described above was sprayed on leaves of the branches (50 cm long area from the branch top) with a hand sprayer In a control group, the leaves were treated with only 60% (v/v) aqueous acetone solution.
The concentrations of the prohexadione compound used for the foliar spray treatment were as follows: • Concentration (ppm) • 0.5 • 5 • 50 • 500

## CCOC(=O)C1CC(=O)C(=C(O)C2CC2)C(=O)C1 (stereo not shown)
[1]; 50 or 500 ppm, aerial application
  Elongation growth of the Cryptomeria japonica trees versus control group (in words): substantially the same as that in the control group
[1]; 50 ppm or 500 ppm, aerial application
  Effect of inhibiting the differentiation and formation of the male flowers (in words): remarkable effect
[1]; 50 ppm
  Number of male flower clusters: 751.3 ± 121.5
[1]; 50 ppm, aerial application
  Shoot Elongation: 83.3 ± 10.7 cm
[1]; 500 ppm
  Number of male flower clusters: 124.2 ± 55.2
[1]; 500 ppm, aerial application
  Shoot Elongation: 82.8 ± 11.2 cm
[2]; 0.5 ppm foliar spray
  Branches Elongation: 25.5 ± 7.2 cm
[2]; 0.5 ppm in 60% aqueous acetone
  Number of male flower clusters: 111.6 ± 25.2
[2]; 0.5 to 500 ppm
  Elongation growth of the Cryptomeria japonica branches versus control group (in words): substantially unchanged
[2]; 5 ppm foliar spray
  Branches Elongation: 26.2 ± 6.5 cm
[2]; 5 ppm in 60% aqueous acetone
  Number of male flower clusters: 70.4 ± 12.4
[2]; 50 ppm foliar spray
  Branches Elongation: 24.3 ± 6.3 cm
[2]; 50 ppm in 60% aqueous acetone
  Number of male flower clusters: 21.2 ± 6.5
[2]; 50 ppm or 500 ppm
  Effect of inhibiting the differentiation and formation of male Cryptomeria japonica flowers (in words): remarkable
[2]; 500 ppm foliar spray
  Branches Elongation: 25.2 ± 5.5 cm
[2]; 500 ppm in 60% aqueous acetone
  Number of male flower clusters: 10.8 ± 6.1
